# According to ChEMBL document CHEMBL4414647, “Austalides, Osteoclast Differentiation Inhibitors from a Marine-Derived Strain of the Fungus Penicillium rudallense” (J Nat Prod, 2019):
# Active and inactive are the calls of the source. The calls are words filed in the database; no cut-off is given here.
# Assays:
# [1] = tested on: BMDM; test: Inhibition of RANKL-induced osteoclast differentiation in ICR mouse bone marrow macrophage assessed as reduction in multinucleated TRAP+ cells at 10 uM preincubated for 3 days for RANKL stimulation followed by compound addition and measured after 1 day by TRAP staining based microscopy; format: functional, cell-based
# [2] = Inhibition of RANKL-induced osteoclast differentiation in ICR mouse bone marrow macrophage assessed as reduction in multinucleated TRAP+ cells preincubated for 3 days for RANKL stimulation followed by compound addition and measured after 1 day by TRAP staining based microscopy; format: functional; conditions: BMDM, read-out: ED50 (the source's name)
# [3] = tested on: BMDM; test: Cytotoxicity against ICR mouse bone marrow macrophage assessed as reduction in cell viability at 1 to 10 uM incubated for 3 days by WST-8 assay; format: cell-based; conditions: 72 h
# [4] = tested on: BMDM; test: Cytotoxicity against ICR mouse bone marrow macrophage assessed as reduction in cell viability at 10 uM incubated for 3 days by WST-8 assay; format: cell-based; conditions: 72 h
EC50 [2] [nM],Compound,inhibition [1],Activity [3],Activity [4]
1900 to 2800,COc1c2c(c(C)c3c1C(=O)OC3)O[C@@]1(C)CC[C@@]3(O)C(C)(C)C(=O)CC[C@]3(C)[C@H]1C2,–,Non-Toxic,–
1900 to 2800,COc1c2c(c(C)c3c1C(=O)OC3)O[C@@]1(C)C[C@@H](O)[C@H]3C(C)(C)C(=O)CC[C@]3(C)[C@H]1C2,–,Non-Toxic,–
1900 to 2800,COc1c2c(c(C)c3c1C(=O)OC3)O[C@@]1(C)CC[C@H]3C(C)(C)[C@@H](O)CC[C@]3(C)[C@H]1C2,–,Non-Toxic,–
1900 to 2800,Cc1c2c(c(O)c3c1O[C@@]1(C)CC[C@H]4C(C)(C)C(=O)CC[C@]4(C)[C@H]1C3)C(=O)OC2,–,–,Toxic
1900 to 2800,COc1c2c(c(C)c3c1C(=O)OC3)O[C@@]1(C)CC[C@H]3C(C)(C)OC(=O)CC[C@]3(C)[C@H]1C2,–,Non-Toxic,–
1900 to 2800,COC(=O)CC[C@]1(C)[C@H]2Cc3c(c(C)c4c(c3OC)C(=O)OC4)O[C@@]2(C)CC[C@H]1C(C)(C)O,–,Non-Toxic,–

# The remaining lines, values behind:
Compound,EC50 [2] [nM],inhibition [1],Activity [3],Activity [4]
C=C(C)[C@@H]1[C@H](O)C[C@]2(C)Oc3c(C)c4c(c(OC)c3C[C@@H]2[C@@]1(C)CCC(=O)OC)C(=O)OC4,–,inactive,–,–
CC(C)=CCC/C(C)=C/CC/C(C)=C/Cc1c(O)c(C)c2c(c1O)C(=O)OC2,–,inactive,–,–
C=C(C)[C@@H]1CC[C@]2(C)Oc3c(C)c4c(c(OC)c3C[C@@H]2[C@@]1(C)CCC(=O)OC)C(=O)OC4,–,inactive,–,–
C/C(=C\Cc1c(O)c(C)c2c(c1O)C(=O)OC2)CC/C=C(\C)CCCC(C)(C)O,–,inactive,–,–
COC(=O)CC[C@]1(C)[C@H]2Cc3c(c(C)c4c(c3OC)C(=O)OC4)O[C@@]2(C)C[C@@H](O)[C@H]1C(C)(C)O,–,inactive,–,–
COc1c2c(c(C)c3c1C(=O)OC3)O[C@@]1(C)CC[C@@H](C(C)(C)O)[C@](C)(CCC(=O)O)[C@H]1C2,–,inactive,–,–
